{"source": "patent US12472195B2", "about": "“Inhalation formulations of antimicrobial compounds” (priority 2020, dated 2025)", "key": {"[1]": {"system": "human lung epithelial A549 cells", "protocol": "Human lung epithelial cells (A549 cells) were obtained from American Type Culture Collection (ATCC® CCL-185™, Manassas, VA, USA), grown and sub-cultured in Dulbecco's modified Eagle's medium (DMEM) supplemented with 10% fetal bovine serum (FBS). A549 cells (1×10^5 cells/mL, 12-well plate) were seeded in supplemented DMEM at 37° C. in a humidified atmosphere containing 5% CO2 until 80% confluency. All experiments were conducted in three replicates. Cells were treated with 1.0 mM polymyxin B in the presence and absence of tobramycin (1.0, 3.0, 5.0, 10.0 and 20.0 mM), amikacin (5.0 and 20.0 mM), gentamicin (5.0, 10.0 and 20.0 mM) and plazomicin (5.0 and 20.0 mM) in supplemented DMEM (1% FBS); and cell viability were examined at 24h with flow cytometry after staining with propidium iodide."}, "[2]": {"system": "mouse lung tissue", "experiment": "Lung histology examination after intratracheal administration in mice", "protocol": "The animal study was approved by the Animal Ethics Committee of the Monash Institute of Pharmaceutical Sciences, Monash University (Parkville, Victoria, Australia). All experiments were conducted in accordance with the Australian Code of Practice for the Care and Use of Animals for Scientific Purposes. Swiss Albino mice (female; age, 6 weeks; body weight, 20 to 25 g) were obtained from the Monash Animal Research Platform (Clayton, Victoria, Australia). […] The animals were housed individually in metabolic cages and had free access to food and water. Mice were intratracheally administered 10 mg/kg of polymyxin B, 60 mg/kg of tobramycin and the combination of tobramycin with polymyxin B in sterile 0.9% saline three times a day and lung histology examination were conducted in a blind manner."}, "[3]": {"conditions": "mice, intratracheal, three times a day, 10 mg/kg polymyxin B, 60 mg/kg tobramycin, or both"}}, "note": "Read-outs that look alike come from different tables or passages of the source.", "data": [{"compound": "NC[C@H]1O[C@H](O[C@H]2[C@H](O)[C@@H](O[C@H]3O[C@H](CO)[C@@H](O)[C@H](N)[C@H]3O)[C@H](N)C[C@@H]2N)[C@H](N)C[C@@H]1O", "note": "[Tobramycin, tobramycin]", "values": [{"measurement": "cell viability", "setting": "[1]; human, 24 h, 20 mM", "result": "87.4±1.6", "unit": "%"}, {"measurement": "effect on polymyxin B-induced pulmonary toxicity", "setting": "[2]; mouse, in vivo", "result": "significantly reduced"}]}, {"compound": "polymyxin B", "values": [{"measurement": "cell viability", "setting": "[1]; 1.0 mM polymyxin B alone, A549 cells, 24h, mean±SD n=3", "result": "40.7±7.4", "unit": "%"}, {"measurement": "area of lung tissue affected by damage", "setting": "[2]; [3]", "result": "25-50%"}, {"measurement": "semi-quantitative score (SQS) of lung histology", "setting": "[2]; [3]", "result": "+2 to +5"}]}]}
